Drawing on ChEMBL document CHEMBL1125828 (J Med Chem, 1991), this text covers IC50 for six compounds.

Bounds are passed on as bounds.

As a reminder, the IC50 is the concentration that inhibits the measured activity by half. A high value points to weaker potency.

For one assay, the target named is GABA B receptor (Rattus norvegicus, UniProt O88871+Q9Z0U4). The assay is described as follows: Displacement of [3H]baclofen from gamma-aminobutyric-acid B receptor. In kind it is protein-complex assay.
Assay [1] has as its target GABA-A receptor; anion channel. Put plainly: Inhibition of [3H]GABA binding to gamma-aminobutyric-acid A (GABA-A) receptor. It counts as protein-complex assay, Rattus norvegicus.

Sequence of GABA B receptor (Q9Z0U4 whole entry): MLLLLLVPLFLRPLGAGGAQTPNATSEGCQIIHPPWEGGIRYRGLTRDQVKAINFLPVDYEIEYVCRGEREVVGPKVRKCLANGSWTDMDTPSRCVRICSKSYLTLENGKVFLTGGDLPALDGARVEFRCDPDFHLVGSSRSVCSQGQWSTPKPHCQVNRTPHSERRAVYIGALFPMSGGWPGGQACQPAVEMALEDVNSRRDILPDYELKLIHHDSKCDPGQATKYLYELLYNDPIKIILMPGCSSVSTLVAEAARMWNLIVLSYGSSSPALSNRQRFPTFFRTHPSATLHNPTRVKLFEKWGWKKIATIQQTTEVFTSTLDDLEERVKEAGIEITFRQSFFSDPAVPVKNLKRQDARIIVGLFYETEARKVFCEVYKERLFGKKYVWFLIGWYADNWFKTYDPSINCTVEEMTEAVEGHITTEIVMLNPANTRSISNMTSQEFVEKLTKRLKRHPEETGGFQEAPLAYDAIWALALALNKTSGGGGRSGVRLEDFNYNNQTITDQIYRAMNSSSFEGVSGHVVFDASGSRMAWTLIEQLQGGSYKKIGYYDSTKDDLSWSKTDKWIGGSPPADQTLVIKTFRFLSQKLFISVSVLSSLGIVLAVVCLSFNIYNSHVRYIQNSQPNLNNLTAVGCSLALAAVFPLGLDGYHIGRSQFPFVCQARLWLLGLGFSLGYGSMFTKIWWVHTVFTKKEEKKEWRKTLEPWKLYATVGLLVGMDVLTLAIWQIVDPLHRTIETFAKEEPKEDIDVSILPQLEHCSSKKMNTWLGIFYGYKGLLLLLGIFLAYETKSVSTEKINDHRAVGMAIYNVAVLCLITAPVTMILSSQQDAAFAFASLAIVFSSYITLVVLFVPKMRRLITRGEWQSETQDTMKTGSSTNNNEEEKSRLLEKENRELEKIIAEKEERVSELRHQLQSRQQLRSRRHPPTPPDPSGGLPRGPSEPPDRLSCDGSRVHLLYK
Sequence of GABA B receptor (O88871 whole entry): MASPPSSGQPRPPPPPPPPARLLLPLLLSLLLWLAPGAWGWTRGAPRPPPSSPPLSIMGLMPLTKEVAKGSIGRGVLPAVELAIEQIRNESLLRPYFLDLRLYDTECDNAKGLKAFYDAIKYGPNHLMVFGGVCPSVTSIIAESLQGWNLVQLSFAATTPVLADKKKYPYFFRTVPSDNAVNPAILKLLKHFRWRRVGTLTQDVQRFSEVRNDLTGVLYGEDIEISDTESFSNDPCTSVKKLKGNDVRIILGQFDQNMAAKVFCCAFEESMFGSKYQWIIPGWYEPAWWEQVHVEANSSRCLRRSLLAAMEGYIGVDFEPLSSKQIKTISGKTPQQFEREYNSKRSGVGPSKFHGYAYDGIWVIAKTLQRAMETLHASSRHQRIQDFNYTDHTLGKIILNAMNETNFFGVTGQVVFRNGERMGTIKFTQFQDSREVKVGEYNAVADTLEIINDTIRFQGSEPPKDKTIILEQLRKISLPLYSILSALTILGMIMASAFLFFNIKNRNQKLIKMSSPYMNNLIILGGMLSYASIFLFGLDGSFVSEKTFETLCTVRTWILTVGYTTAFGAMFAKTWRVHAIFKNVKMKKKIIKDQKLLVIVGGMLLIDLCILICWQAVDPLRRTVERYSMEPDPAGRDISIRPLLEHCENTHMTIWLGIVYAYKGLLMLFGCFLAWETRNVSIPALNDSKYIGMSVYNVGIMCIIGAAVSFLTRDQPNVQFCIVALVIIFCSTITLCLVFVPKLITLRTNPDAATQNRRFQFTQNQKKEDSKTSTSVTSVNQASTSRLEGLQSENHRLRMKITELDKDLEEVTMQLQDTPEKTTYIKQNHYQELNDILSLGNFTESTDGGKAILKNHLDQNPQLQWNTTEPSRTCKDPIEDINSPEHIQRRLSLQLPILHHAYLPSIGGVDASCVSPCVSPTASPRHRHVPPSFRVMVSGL

As for `NCC(CC(=O)O)c1ccc(Cl)cc1Cl` (configuration not stated), the results for the IC50 (at GABA B receptor; in assay [1]) were 11 µM and more than 100 µM, respectively.

Consider `NCC1(CC(=O)O)CCCc2ccccc21` (configuration not stated), for which the IC50 (at GABA B receptor; in assay [1]) was more than 100 µM throughout.

For the compound `NCC(CC(=O)O)c1c(Cl)cccc1Cl` (configuration not stated), the IC50 (on GABA B receptor; in assay [1]) was more than 100 µM each time.

In the case of `NCC1(CC(=O)O)CCc2ccccc21` (configuration not stated), the IC50 (at GABA B receptor; in assay [1]) was more than 100 µM throughout.

Consider `NCC1(CC(=O)O)Cc2ccccc21` (configuration not stated), for which the IC50 (on GABA B receptor; in assay [1]) was more than 100 µM each time.

For the compound `NCC1(CC(=O)O)CCc2cc(Cl)ccc21` (configuration not stated), the IC50 (on GABA B receptor; in assay [1]) was more than 100 µM throughout.
